Patent US20250129078A1, “ERBB2 INHIBITORS” (Cogent Biosciences, Inc., priority 2023, published 2025)

Experiments:
EGFR WT = EGFR WT (Homo sapiens (Human), UniProt P00533); assay: ErbB enzyme assay (CisBio HTRF-KinEASE-TK), EGFR WT; assay type: biochemical; conditions: ATP at Km (25 μM), 1 h incubation
In short: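 Potency comes from a homogeneous time-resolved fluorescence kinase format measuring tyrosine substrate phosphorylation. Reactions and detection steps each run 1 h at ambient temperature. IC50 values are interpolated from 4-parameter logistic fits of percent-of-control data.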

ErbB2 V777L = ErbB2 V777L (Homo sapiens (Human), UniProt P04626, V777L); assay: ErbB enzyme assay (CisBio HTRF-KinEASE-TK), ErbB2 V777L; assay type: biochemical
In short: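 HTRF KinEASE-TK tyrosine-kinase read-out of substrate phosphorylation after a final 1 h at ambient temperature, from the 655/620 nm emission ratio.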

EGFR WT, sequence (P00533 25-1210): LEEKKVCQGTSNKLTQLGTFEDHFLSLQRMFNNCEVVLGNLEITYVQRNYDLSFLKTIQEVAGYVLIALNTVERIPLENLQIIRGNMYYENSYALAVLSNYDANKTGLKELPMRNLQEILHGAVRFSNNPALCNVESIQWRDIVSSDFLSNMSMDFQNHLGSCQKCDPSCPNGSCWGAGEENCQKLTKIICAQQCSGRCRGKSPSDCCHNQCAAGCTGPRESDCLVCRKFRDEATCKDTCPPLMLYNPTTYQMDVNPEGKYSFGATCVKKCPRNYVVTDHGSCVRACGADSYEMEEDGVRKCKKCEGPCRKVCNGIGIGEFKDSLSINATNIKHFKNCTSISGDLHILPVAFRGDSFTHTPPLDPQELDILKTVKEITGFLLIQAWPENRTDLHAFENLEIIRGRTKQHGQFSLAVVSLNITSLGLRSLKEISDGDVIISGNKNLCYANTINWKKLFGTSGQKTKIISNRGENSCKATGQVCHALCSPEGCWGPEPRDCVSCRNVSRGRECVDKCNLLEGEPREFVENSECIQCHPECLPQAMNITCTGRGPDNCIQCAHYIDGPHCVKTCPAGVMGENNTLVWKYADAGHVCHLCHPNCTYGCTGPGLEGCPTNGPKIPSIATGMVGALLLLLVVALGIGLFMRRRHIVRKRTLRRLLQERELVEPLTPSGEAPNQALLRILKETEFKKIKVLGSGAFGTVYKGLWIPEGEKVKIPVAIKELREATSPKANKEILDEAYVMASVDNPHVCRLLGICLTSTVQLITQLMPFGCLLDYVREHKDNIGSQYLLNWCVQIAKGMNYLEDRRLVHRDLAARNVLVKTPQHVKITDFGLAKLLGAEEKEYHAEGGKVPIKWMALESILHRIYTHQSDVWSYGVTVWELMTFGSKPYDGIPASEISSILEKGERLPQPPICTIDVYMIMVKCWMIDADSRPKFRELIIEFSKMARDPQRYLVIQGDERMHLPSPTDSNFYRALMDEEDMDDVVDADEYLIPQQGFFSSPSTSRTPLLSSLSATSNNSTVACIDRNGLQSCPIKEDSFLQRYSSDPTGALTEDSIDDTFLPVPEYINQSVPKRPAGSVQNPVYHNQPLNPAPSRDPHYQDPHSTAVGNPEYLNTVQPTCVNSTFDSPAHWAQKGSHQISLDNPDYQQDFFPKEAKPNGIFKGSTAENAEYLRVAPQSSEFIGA
ErbB2 V777L, sequence (P04626 23-1255 V777L): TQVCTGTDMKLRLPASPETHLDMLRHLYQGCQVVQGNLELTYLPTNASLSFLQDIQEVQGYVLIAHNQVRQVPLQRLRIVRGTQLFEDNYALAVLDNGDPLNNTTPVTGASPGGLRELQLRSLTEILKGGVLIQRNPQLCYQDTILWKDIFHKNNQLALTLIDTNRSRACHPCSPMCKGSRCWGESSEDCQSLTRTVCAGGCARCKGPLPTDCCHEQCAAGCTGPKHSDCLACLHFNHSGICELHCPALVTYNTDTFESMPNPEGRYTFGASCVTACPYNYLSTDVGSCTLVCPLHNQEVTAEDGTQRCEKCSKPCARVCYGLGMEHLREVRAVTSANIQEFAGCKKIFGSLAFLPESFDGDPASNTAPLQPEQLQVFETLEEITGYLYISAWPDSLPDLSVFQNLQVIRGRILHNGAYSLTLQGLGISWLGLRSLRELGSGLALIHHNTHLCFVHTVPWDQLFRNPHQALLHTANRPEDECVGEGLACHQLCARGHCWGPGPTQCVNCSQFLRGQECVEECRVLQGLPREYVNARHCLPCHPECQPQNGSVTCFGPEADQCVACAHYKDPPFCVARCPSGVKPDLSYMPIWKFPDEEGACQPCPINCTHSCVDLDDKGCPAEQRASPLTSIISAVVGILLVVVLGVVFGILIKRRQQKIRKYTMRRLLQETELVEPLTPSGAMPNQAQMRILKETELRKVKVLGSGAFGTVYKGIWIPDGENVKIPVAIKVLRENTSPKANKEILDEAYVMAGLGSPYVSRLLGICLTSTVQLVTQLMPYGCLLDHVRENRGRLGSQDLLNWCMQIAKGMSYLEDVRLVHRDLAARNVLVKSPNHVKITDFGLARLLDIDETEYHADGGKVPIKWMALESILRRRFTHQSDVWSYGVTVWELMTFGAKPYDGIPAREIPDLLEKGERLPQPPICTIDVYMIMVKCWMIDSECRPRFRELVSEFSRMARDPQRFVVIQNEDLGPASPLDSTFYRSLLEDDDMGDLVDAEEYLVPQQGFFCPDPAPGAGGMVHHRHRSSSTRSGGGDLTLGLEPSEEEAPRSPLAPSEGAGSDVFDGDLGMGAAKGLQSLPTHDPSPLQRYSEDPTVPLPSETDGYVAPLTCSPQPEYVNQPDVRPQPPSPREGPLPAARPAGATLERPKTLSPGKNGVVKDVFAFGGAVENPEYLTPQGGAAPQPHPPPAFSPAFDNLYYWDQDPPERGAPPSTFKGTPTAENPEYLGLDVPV

## C=CC(=O)N(C)[C@H]1C[C@H](Oc2ncc3ncnc(Nc4ccc(Oc5ccc6c(c5)ncn6C)c(C)c4)c3n2)C1 [Compound 382, N-methyl-N-((1r,3r)-3-((8-((3-methyl-4-((1-methyl-1H-benzo[d]imidazol-5-yl)oxy)phenyl)amino)pyrimido[5,4-d]pyrimidin-2-yl)oxy)cyclobutyl)acrylamide]
EGFR WT
  IC50: ≥ 1000 nM
ErbB2 V777L
  IC50: 50 to 100 nM

## Cc1cc(Nc2ncnc3cnc(N4CCN(C(=O)/C=C/CN(C)C)CC4)nc23)ccc1Oc1ccc2c(c1)nnn2C [Compound 58, (E)-4-(dimethyl-amino)-1-(4-(8-((3-methyl-4-((1-methyl-1H-benzo[d][1,2,3]triazol-5-yl)oxy)phenyl)amino)pyrimido [5,4-d]pyrimidin-2-yl)piperazin-1-yl)but-2-en-1-one]
EGFR WT
  IC50: 50 to 100 nM
ErbB2 V777L
  IC50: 50 to 100 nM

## C=CC(=O)N(C)C1CC2(C1)CN(c1ncc3ncnc(Nc4ccc(Oc5ccc6c(c5)nnn6C)c(C)c4)c3n1)C2 [Compound 232, N-methyl-N-(2-(8-((3-methyl-4-((1-methyl-H-benzo[d][1,2,3]triazol-5-yl)oxy)phenyl)amino)pyrimido[5,4-d]pyrimidin-2-yl)-2-azaspiro[3.3]heptan-6-yl)acrylamide]
EGFR WT
  IC50: ≥ 1000 nM
ErbB2 V777L
  IC50: 500 to 1000 nM

## C=CC(=O)N1CCN(c2ncc3ncnc(Nc4ccc(Oc5ccc6c(c5)nnn6C)c(C)c4F)c3n2)C[C@H]1C [Compound 156, (R)-1-(4-(8-((2-fluoro-3-methyl-4-((1-methyl-1H-benzo[d][1,2,3]triazol-5-yl)oxy)phenyl)amino)pyrimido[5,4-d]pyrimidin-2-y1)-2-methylpiperazin-1-yl)prop-2-en-1-one]
EGFR WT
  IC50: 100 to 500 nM
ErbB2 V777L
  IC50: 100 to 500 nM

## C=CC(=O)N1CCN(c2ncc3ncnc(Nc4ccc(Oc5ccc6c(c5)nnn6C)c(C)c4)c3n2)C[C@@H]1C1CC1 [Compound 117, (S)-1-(2-cyclopropyl-4-(8-((3-methyl-4-((1-methyl-1H-benzo[d][1,2,3]triazol-5-yl)oxy)phenyl)amino)pyrimido[5,4-d]pyrimidin-2-yl)piperazin-1-yl)prop-2-en-1-one]
EGFR WT
  IC50: ≥ 1000 nM
ErbB2 V777L
  IC50: 100 to 500 nM

## C=CC(=O)N1CCN(c2ccc3ncnc(Nc4ccc(Oc5ccc6c(c5)nnn6C)c(C)c4)c3n2)CC[C@@H]1C [Compound 354, (S)-1-(7-methyl-4-(4-((3-methyl-4-((1-methyl-1H-benzo[d][1,2,3]triazol-5-yl)oxy)phenyl)amino)pyrido[3,2-d]pyrimidin-6-yl)-1,4-diazepan-1-yl)prop-2-en-1-one]
EGFR WT
  IC50: 500 to 1000 nM
ErbB2 V777L
  IC50: 100 to 500 nM

## C=CC(=O)N(C)C1CN(c2ncc3ncnc(Nc4ccc(Oc5ccc6c(c5)nnn6C)c(C)c4)c3n2)C1 [Compound 26, N-methyl-N-(1-(8-((3-methyl-4-((1-methyl-1H-benzo[d][1,2,3]triazol-5-yl)oxy)phenyl)amino)pyrimido[5,4-d]pyrimidin-2-yl)azetidin-3-yl)acrylamide]
EGFR WT
  IC50: 100 to 500 nM
ErbB2 V777L
  IC50: 100 to 500 nM

## C=CC(=O)N[C@H]1CN(c2ccc3ncnc(Nc4ccc(Oc5ccc6c(c5)nnn6C)c(C)c4F)c3n2)CC[C@@H]1F [Compound 296, N-((3S,4S)-4-fluoro-1-(4-((2-fluoro-3-methyl-4-((1-methyl-1H-benzo[d][1,2,3]triazol-5-yl)oxy)phenyl)amino)pyrido[3,2-d]pyrimidin-6-yl)piperidin-3-yl)acrylamide]
EGFR WT
  IC50: 100 to 500 nM
ErbB2 V777L
  IC50: 100 to 500 nM

## C=CC(=O)N1CCN(c2ccc3ncnc(Nc4ccc(Oc5ccc6c(c5)ncn6C(F)F)c(C)c4F)c3n2)C[C@@H]1C1CC1 [Compound 286, (S)-1-(2-cyclopropyl-4-(4-((4-((1-(difluoromethyl)-1H-benzo[d]imidazol-5-yl)oxy)-2-fluoro-3-methylphenyl)amino)pyrido[3,2-d]pyrimidin-6-yl)piperazin-1-yl)prop-2-en-1-one]
EGFR WT
  IC50: ≥ 1000 nM
ErbB2 V777L
  IC50: 100 to 500 nM

## C=CC(=O)N1CCN(c2ncc3ncnc(Nc4cc(C)c(Oc5ccc6c(c5)nnn6C)c(Cl)c4)c3n2)C[C@H]1C [Compound 151, (R)-1-(4-(8-((3-chloro-5-methyl-4-((1-methyl-1H-benzo[d][1,2,3]triazol-5-yl)oxy)phenyl)amino)pyrimido[5,4-d]pyrimidin-2-yl)-2-methylpiperazin-1-yl)prop-2-en-1-one]
EGFR WT
  IC50: 100 to 500 nM
ErbB2 V777L
  IC50: 100 to 500 nM

## C=CC(=O)N1CCN(c2ncc3ncnc(Nc4ccc(Oc5ccc6c(c5)ncn6C(F)F)c(C)c4F)c3n2)C[C@H]1C [Compound 148, (R)-1-(4-(8-((4-((1-(difluoromethyl)-1H-benzo[d]imidazol-5-yl)oxy)-2-fluoro-3-methylphenyl)amino)pyrimido[5,4-d]pyrimidin-2-yl)-2-methylpiperazin-1-yl)prop-2-en-1-one]
EGFR WT
  IC50: 100 to 500 nM
ErbB2 V777L
  IC50: 50 to 100 nM

## C=CC(=O)N(C)C1CCN(c2ncc3ncnc(Nc4ccc(Oc5ccc6c(c5)nnn6C)c(C)c4F)c3n2)C1 (stereo not shown) [Compound 9, N-(1-(8-((2-fluoro-3-methyl-4-((1-methyl-1H-benzo[d][1,2,3]triazol-5-yl)oxy)phenyl)amino)pyrimido [5,4-d]pyrimidin-2-yl)pyrrolidin-3-y1)-N-methylacrylamide]
EGFR WT
  IC50: 500 to 1000 nM
ErbB2 V777L
  IC50: 100 to 500 nM

## C=CC(=O)N1CC2C(C1)N2c1ncc2ncnc(Nc3ccc(Oc4ccc5c(c4)nnn5C)c(C)c3)c2n1 (stereo not shown) [Compound 242, 1-(6-(8-((3-methyl-4-((1-methyl-1H-benzo[d][1,2,3]triazol-5-yl)oxy)phenyl)amino)pyrimido[5,4-d]pyrimidin-2-yl)-3,6-diazabicyclo[3.1.0]hexan-3-yl)prop-2-en-1-one]
EGFR WT
  IC50: 100 to 500 nM
ErbB2 V777L
  IC50: 500 to 1000 nM

## C=CC(=O)N1CCN(c2ncc3ncnc(Nc4ccc(Oc5ccc6c(c5)nnn6C)c(C)c4)c3n2)C[C@H]1C1CC1 [Compound 196, (R)-1-(2-cyclopropyl-4-(8-((3-methyl-4-((1-methyl-1H-benzo[d][1,2,3]triazol-5-yl)oxy)phenyl)amino)pyrimido[5,4-d]pyrimidin-2-yl)piperazin-1-yl)prop-2-en-1-one]
EGFR WT
  IC50: 500 to 1000 nM
ErbB2 V777L
  IC50: 100 to 500 nM

## C=CC(=O)N1CCN(c2ccc3ncnc(Nc4ccc(Oc5ccc6c(c5)nnn6C)c(C)c4)c3c2F)CC1 [Compound 104, 1-(4-(5-fluoro-4-((3-methyl-4-((1-methyl-1H-benzo[d][1,2,3]triazol-5-yl)oxy)phenyl)amino)quinazolin-6-yl)piperazin-1-yl)prop-2-en-1-one]
EGFR WT
  IC50: 100 to 500 nM
ErbB2 V777L
  IC50: 100 to 500 nM

## C=CC(=O)N1CC2CN(c3ncc4ncnc(Nc5ccc(Oc6ccc7c(c6)nnn7C)c(C)c5)c4n3)CC2C1 (stereo not shown) [Compound 27, 1-(5-(8-((3-methyl-4-((1-methyl-1H-benzo[d][1,2,3]triazol-5-yl)oxy)phenyl)amino)pyrimido[5,4-d]pyrimidin-2-yl)hexahydropyrrolo[3,4-c]pyrrol-2(1H)-y1)prop-2-en-1-one]
EGFR WT
  IC50: ≥ 1000 nM
ErbB2 V777L
  IC50: 100 to 500 nM

## C=CC(=O)N1CCN(c2ccc3ncnc(Nc4ccc(Oc5ccc6c(c5)nnn6C)c(C)c4F)c3n2)C[C@@H]1C1CC1 [Compound 271, (S)-1-(2-cyclopropyl-4-(4-((2-fluoro-3-methyl-4-((1-methyl-1H-benzo[d][1,2,3]triazol-5-yl)oxy)phenyl)amino)pyrido[3,2-d]pyrimidin-6-yl)piperazin-1-yl)prop-2-en-1-one]
EGFR WT
  IC50: ≥ 1000 nM
ErbB2 V777L
  IC50: 500 to 1000 nM

## C=CC(=O)N[C@@H]1[C@@H]2CC[C@H]1CN(c1ncc3ncnc(Nc4ccc(Oc5ccc6c(c5)nnn6C)c(C)c4)c3n1)C2 [Compound 206, N-((1R,5S,8s)-3-(8-((3-methyl-4-((1-methyl-1H-benzo[d][1,2,3]triazol-5-yl)oxy)phenyl)amino)pyrimido[5,4-d]pyrimidin-2-yl)-3-azabicyclo[3.2.1]octan-8-yl)acrylamide]
EGFR WT
  IC50: 100 to 500 nM
ErbB2 V777L
  IC50: 50 to 100 nM

## C=CC(=O)N1CCN(c2ncc3ncnc(Nc4ccc(Oc5cc6nnn(C)c6cn5)c(C)c4)c3n2)CC1 [Compound 132, 1-(4-(8-((3-methyl-4-((3-methyl-3H-[1,2,3]triazolo[4,5-c]pyridin-6-yl)oxy)phenyl)amino)pyrimido[5,4-d]pyrimidin-2-yl)piperazin-1-yl)prop-2-en-1-one]
EGFR WT
  IC50: 100 to 500 nM
ErbB2 V777L
  IC50: 100 to 500 nM

## C=CC(=O)N1CCN(c2ncc3ncnc(Nc4c(OC)cc(Oc5ccc6c(c5)nnn6C)c(C)c4F)c3n2)CC1 [Compound 138, 1-(4-(8-((2-fluoro-6-methoxy-3-methyl-4-((1-methyl-1H-benzo[d][1,2,3]triazol-5-yl)oxy)phenyl)amino)pyrimido[5,4-d]pyrimidin-2-yl)piperazin-1-yl)prop-2-en-1-one]
EGFR WT
  IC50: 100 to 500 nM
ErbB2 V777L
  IC50: 100 to 500 nM

## C=C(F)C(=O)N1CC(F)(F)C12CN(c1ncc3ncnc(Nc4ccc(Oc5ccc6c(c5)nnn6C)c(C)c4)c3n1)C2 [Compound 209, 1-(3,3-difluoro-6-(8-((3-methyl-4-((1-methyl-1H-benzo[d][1,2,3]triazol-5-yl)oxy)phenyl)amino)pyrimido [5,4-d]pyrimidin-2-yl)-1,6-diazaspiro[3.3]heptan-1-yl)-2-fluoroprop-2-en-1-one]
EGFR WT
  IC50: 50 to 100 nM
ErbB2 V777L
  IC50: 50 to 100 nM

## C=CC(=O)N1CCN(c2ccc3ncnc(Nc4ccc(Oc5ccc6c(c5)nnn6C)c(C)c4)c3n2)C[C@H]1CC [Compound 294, (R)-1-(2-ethyl-4-(4-((3-methyl-4-((1-methyl-1H-benzo[d][1,2,3]triazol-5-yl)oxy)phenyl)amino)pyrido[3,2-d]pyrimidin-6-yl)piperazin-1-yl)prop-2-en-1-one]
EGFR WT
  IC50: 100 to 500 nM
ErbB2 V777L
  IC50: 100 to 500 nM

## C=CC(=O)N1CCN(c2ccc3ncnc(Nc4c(OC)cc(Oc5ccc6c(c5)nnn6C)c(C)c4F)c3n2)C[C@H]1C [Compound 256, (R)-1-(4-(4-((2-fluoro-6-methoxy-3-methyl-4-((1-methyl-1H-benzo[d][1,2,3]triazol-5-yl)oxy)phenyl)amino)pyrido[3,2-d]pyrimidin-6-yl)-2-methylpiperazin-1-yl)prop-2-en-1-one]
EGFR WT
  IC50: 100 to 500 nM
ErbB2 V777L
  IC50: 100 to 500 nM
